Measurements published in publication PMC12040169 (PLOS Biology, 2025).

Test: in vitro
Conditions: human, hela cells, % viability

Row | SMILES | viability at 28.5 h, 10 µM [%] | viability at 28.5 h, 10 µM (bulk resorufin, single well) [%]
1 | O=C(OCc1ccccc1)N1CCC(C2OCc3ccc(-c4ccc(Cl)c(Cl)c4)cc3O2)CC1 (stereo not shown) [CBK144646] | 109 | –
2 | CN(C)CCO/N=C1\CC2(CCCC2)c2ccc(Cl)cc21 [CBK013334] | 78.1 | –
3 | COc1cc(C2NC(=S)NC(c3ccccc3)=C2C(=O)c2ccccc2)cc(I)c1OCCO (stereo not shown) [CBK267485] | 86.7 | –
4 | O=c1n(Cc2cccnc2)c2cccnc2n1Cc1cccs1 [CBK283903] | 89.7 | –
5 | Cn1c(=O)c2c(ncn2CC(=O)Nc2ccc(Cl)cc2Cl)n(C)c1=O [CBK133227] | 86 | –
6 | Cn1c(=O)cc(NCCCCCC(=O)O)[nH]c1=O [CBK286574] | 88.3 | –
7 | CCN(Cc1ccc(C#N)cc1F)C(=O)NC(C)c1nncn1C (stereo not shown) [CBK305888] | 119 | –
8 | Cc1nc(N2CCOCC2)[nH]c(=O)c1CCC(=O)Nc1ccccc1F [CBK305003] | 97.7 | –
9 | C[N+]1(CC(=O)c2ccccc2)C2CCC1CC(OC(=O)C(O)c1ccccc1)C2 (stereo not shown) [CBK022712C] | 120 | –
10 | CC(C)Cn1c(=O)[nH]c2ncc(-c3ccc(C(=O)NC4CCCC4)cc3)nc21 [CBK064551] | 108 | –
11 | CC1(NC(=O)CC2C(=O)NCCN2Cc2cccc(F)c2)CCC1 (stereo not shown) [CBK281611] | 80.9 | –
12 | Cc1ccc(C)c(NS(=O)(=O)c2ccc(NC(=O)c3ccc(CN4CCOCC4)cc3)cc2)c1 [CBK264780] | 104 | –
13 | CC(=O)N1CCC(C(=O)NC(=O)NCc2ccc3c(c2)CCO3)CC1 [CBK034837] | 93.8 | –
14 | O=C(NCCN1CCOCC1)NC(=O)c1ccc(Cl)cc1 [CBK269446] | 88.2 | –
15 | c1cnc2c(c1)cc([C@H]1CCCO1)n2CCN1CCCC1 [CBK282289] | 91.9 | –
16 | Cc1cc(C2CCCCCN2C(=O)c2cc(C3CC3)on2)on1 (stereo not shown) [CBK285414] | 90.1 | –
17 | CCc1nc2ccc(C(=O)N(C)CCN(C)C)cn2c1N(C)C(=O)Cc1ccccc1 [CBK146858] | 90.8 | –
18 | Cc1cnc(CNS(=O)(=O)c2ccc(C(C)C)cc2)cn1 [CBK044615] | 118 | –
19 | COc1ccc(Cl)cc1N1CCN(Cc2c(F)cccc2F)CC1 [CBK126410] | – | 90.9
20 | O=C(Cn1ccc(=O)[nH]c1=O)Nc1ccc(OCC(F)(F)F)cc1 [CBK305879] | 98 | –
21 | O=C(c1cccs1)N1CCC(c2nnc3n2CCCCC3)CC1 [CBK284626] | 95.7 | –
22 | O=C(CCn1c(C(F)(F)F)cc2cccnc21)NC1CCCC1 [CBK284864] | 103 | –

Row | SMILES | viability at 28.5 h, 10 µM [%] | viability at 28.5 h, 10 µM (bulk resorufin, single well) [%]
23 | COCCNC(=O)[C@@H](C)C1CC[C@@]2(C)CC[C@H](NS(C)(=O)=O)[C@@H](C)[C@@H]2[C@H]1O (stereo partly shown) [CBK289457] | 93.5 | –
24 | CN(C)S(=O)(=O)N(CC(=O)NCc1ccco1)c1ccccc1 [CBK267971] | 97.3 | –
25 | Cc1nc2c(C(=O)NCCC3OCCO3)cnn2c(C)c1Cc1cccnc1 [CBK162159] | 108 | –
26 | COc1cc(-c2cn3ccnc3c(NCC3CC3)n2)ccc1O [CBK037538] | 106 | –
27 | CCOC(=O)N1CCC(NS(=O)(=O)c2cc(Br)c(Cl)s2)CC1 [CBK045472] | 95.8 | –
28 | COc1cc2c(cc1OC)C1=NNC(=O)C1=NC(C)(C)C2 [CBK288353] | 22.3 | –
29 | CN1C(=O)c2ccccc2OCCCCC[C@H]2NCCC[C@H]21 [CBK292075] | 110 | –
30 | Cc1c(C(=O)N2CC(n3cc(C(C)(C)O)nn3)C2)sc2cccc(F)c12 [CBK306398] | 91.4 | –
31 | CC(=O)N1C[C@H](c2ccsc2)[C@H]2CN(Cc3cccs3)CC[C@H]21 [CBK284586] | 109 | –
32 | Nn1c(SCC(=O)Nc2ccc3c(c2)OCO3)nnc1-c1ccccn1 [CBK267550] | 101 | –
33 | c1ccc(-n2ncc3c(NCc4cccnc4)ncnc32)cc1 [CBK265528] | 85.2 | –
34 | O=c1[nH]c(=O)c2nnc(N/N=C\c3ccc(O)cc3)nc2[nH]1 [CBK263312] | 94.1 | –
35 | CSc1ccc(S(=O)(=O)NCCSCc2ccc(C)cc2)cc1 [CBK268510] | 104 | –
36 | Cc1ccc(OCC(O)CN2CCN(c3ccccn3)CC2)cc1C (stereo not shown) [CBK058884] | 86.9 | –
37 | Cc1cccc(Cc2cccc(C3CCCN(S(=O)(=O)c4cn(C)nc4C)C3)n2)c1 (stereo not shown) [CBK286131] | 101 | –
38 | O=C(NC1CCN(Cn2nnc3ccccc3c2=O)CC1)C1CC1 [CBK305584] | 82.3 | –
39 | Cc1cc2c(cc3c(=O)n(CCN4CCCC4)nc(C)n32)s1 [CBK284126] | 95.5 | –
40 | CC(=O)Nc1ccc(-n2cc(CN3CCC(Sc4ccccn4)CC3)nn2)cc1 [CBK149476] | 99.5 | –
41 | O=C(CCC(=O)Nc1ccc(F)cc1)N/N=C/c1ccc(O)cc1O [CBK261766] | 112 | –
42 | Cc1cccn2c(=O)c(/C=C3\SC(=S)NC3=O)c(NCCCN3CCOCC3)nc12 [CBK264904] | 104 | –
43 | Cn1c(=O)n(CC(=O)OCc2ccccc2)c2cccnc21 [CBK284019] | 91.1 | –
44 | C=CCn1c(S)nnc1CCSCc1ccccc1 [CBK268849] | 95.1 | –

Row | SMILES | viability at 28.5 h, 10 µM [%] | viability at 28.5 h, 10 µM (bulk resorufin, single well) [%]
45 | Cc1ccc(NC(=O)c2ccncc2)cc1C [CBK174646] | 97.5 | –
46 | Cc1nnc(NCCO)c2ccccc12 [CBK261448] | 112 | –
47 | O=[N+]([O-])c1ccc(Oc2cccc(Cl)c2Cl)c(C(F)(F)F)c1 [CBK002594] | 82.8 | –
48 | O=C(c1c[nH]c2ccccc12)C(O)C(c1ccccc1)N1CCOCC1 (stereo not shown) [CBK267802] | 95.4 | –
49 | Cn1cc(CNCCCN2CCc3ccccc32)c(-c2cccnc2)n1 [CBK306316] | 93.3 | –
50 | COC(=O)c1ccsc1NS(=O)(=O)c1ccc(F)cc1 [CBK039060] | 89.7 | –
51 | COCCCn1cnnc1C(C)NC(=O)N(C)Cc1nccs1 (stereo not shown) [CBK306702] | 111 | –
52 | CC(=O)N1CCC2(CC1)OCc1cc(-c3ccc(CCC(=O)O)cc3)ccc1O2 [CBK060971] | – | 90.3
53 | CCOC(=O)c1c(NC(=O)CN2CCOCC2)sc2c1CCC2 [CBK262548] | 102 | –
54 | NS(=O)(=O)c1ccc(Cl)c(Cl)c1 [CBK015652] | 118 | –
55 | O=S(=O)(c1ccc(Cl)cc1)N1CCN(CC(O)Cn2c3ccccc3c3ccccc32)CC1 (stereo not shown) [CBK264383] | 105 | –
56 | Cn1cc(CN2CCC(CNc3ccccn3)C2)cn1 (stereo not shown) [CBK304705] | 101 | –
57 | O=C(COc1ccc(Cl)cc1Br)NNC(=O)c1ccc(O)cc1 [CBK262950] | 95.5 | –
58 | CCOC(=O)c1ccccc1NS(=O)(=O)c1ccc(C)c([N+](=O)[O-])c1 [CBK045451] | 88.7 | –
59 | CC(=O)N1CCC2(CC1)OCc1cc(-c3cncc4ccccc34)ccc1O2 [CBK061010] | – | 90.4
60 | Cc1c(C(=O)C2=C(O)C(=O)N(Cc3cccnc3)C2c2cccnc2)cnn1-c1ccccc1 (stereo not shown) [CBK266543] | 105 | –
61 | Cc1n[nH]c(C)c1CC(=O)NC(Cc1cccs1)c1ccccn1 (stereo not shown) [CBK285208] | 111 | –
62 | O=C(CSc1ccc2nnc(-c3ccccc3)n2n1)Nc1ccccc1 [CBK287513] | 82.7 | –
63 | O=C1NC/C=C/CC2(CCN(Cc3ccc(Cl)cn3)CC2)C(=O)NCCOc2ccccc21 [CBK292008] | 103 | –
64 | COc1cc(C)c(Cl)cc1S(=O)(=O)NCCCN1CCOCC1 [CBK269044] | 97.1 | –
65 | O=C(c1ccc(SCc2cccnc2)c([N+](=O)[O-])c1)N1CCCCC1 [CBK294452] | 98.8 | –
66 | O=C1Nc2cc(Cl)ccc2C2=NCCCN12 [CBK284385] | 81.5 | –

Row | SMILES | viability at 28.5 h, 10 µM [%] | viability at 28.5 h, 10 µM (bulk resorufin, single well) [%]
67 | CC(=O)c1cc(C(=O)NCc2ccc(C)cc2)n(C)c1 [CBK296750] | 85.1 | –
68 | Cc1ccc2c(c1)c(-c1ccccc1)c(-c1ccccc1)n2CC(O)Cn1cnc(-c2ccccc2)c1-c1ccccc1 (stereo not shown) [CBK262531] | 72.7 | –
69 | Cn1ccnc1C1(O)CC2CCC(C1)N2C(=O)c1c(F)cccc1F (stereo not shown) [CBK284092] | 88.7 | –
70 | COCC(=O)N1CCc2sccc2C1c1ccc(NC(=O)c2ccco2)cc1 (stereo not shown) [CBK286200] | 95.6 | –
71 | Cc1ccc(OC(C)C(=O)Nc2ccc(S(=O)(=O)Nc3cc(C)on3)cc2)cc1 (stereo not shown) [CBK268757] | 89.6 | –
72 | COc1ccc(Cn2c(=O)[nH]n(-c3ccccc3)c2=O)cc1F [CBK122772] | 86.5 | –
73 | COc1ccc(Br)cc1C(=O)NC(=S)Nc1cc(Cl)c(O)c(Cl)c1 [CBK265979] | 89.6 | –
74 | O=C(CS(=O)(=O)Cc1ccccc1)Nc1ccc(S(=O)(=O)N2CCOCC2)cc1 [CBK266658] | 88.8 | –
75 | CC(C)(C)NCC(O)c1ccc(O)c2c1C1CCC2CC1 (stereo not shown) [CBK013269C] | 93.9 | –
76 | COc1ccc(-c2nccnc2NCC2CC2)cc1 [CBK038048] | 95.7 | –
77 | COc1cc(Cl)cc(C2NC(=S)NC(c3ccccc3)=C2C(=O)c2ccccc2)c1OCC(=O)O (stereo not shown) [CBK266332] | 106 | –
78 | CC(C)CCCC(=O)n1c(=O)n(CCc2c[nH]c3ccccc23)c2ccccc21 [CBK106513] | 89.2 | –
79 | Cc1ccc(CNC(=O)COc2ccc(S(=O)(=O)N3CCOCC3)cc2)cc1 [CBK269816] | 87.8 | –
80 | Cc1noc(C)c1CC(=O)N(C)CCN1CCCCC1 [CBK281855] | 88.8 | –
81 | Nc1nnc(SCC(=O)N2CCN(C(c3ccccc3)c3ccccc3)CC2)s1 [CBK266320] | 99.2 | –
82 | O=C(c1ccccc1F)N1CCC(O)(c2cccnc2F)CC1 [CBK284356] | 97.1 | –
83 | CN(C)CC1CCCN(C(=O)C2C3CCCCC32)C1 (stereo not shown) [CBK282002] | 82.3 | –
84 | O=C(CC(CN1CCN(Cc2cccnc2)CC1)C(=O)O)Nc1ccc(Cl)cc1 (stereo not shown) [CBK286853] | 91.5 | –
85 | Cn1cnc(C(=O)N2CCC[C@@H]3NC(=O)c4ccccc4OCCCCC[C@@H]32)c1 [CBK292122] | 114 | –
86 | CC(C)c1ccc(N2C(=O)SC(c3ccccc3)C2=O)cc1 (stereo not shown) [CBK113687] | 91.1 | –
87 | COCCn1cnnc1C(C)NC(=O)c1nc2ccccc2[nH]1 (stereo not shown) [CBK307366] | 101 | –
88 | O=C(O)c1cc(-n2c(S)nnc2-c2ccncc2)ccc1Cl [CBK268989] | 94.9 | –
